Each block holds one molecule with its values, some of them ahead of it.
How the values were obtained:
P-selectin [1] = molecular target: T1, P-selectin (Homo sapiens, UniProt P16109); conditions: synthetic P-selectin antagonists, literature refs 48,49; cited from earlier work
T1 sequence (P16109 42-830): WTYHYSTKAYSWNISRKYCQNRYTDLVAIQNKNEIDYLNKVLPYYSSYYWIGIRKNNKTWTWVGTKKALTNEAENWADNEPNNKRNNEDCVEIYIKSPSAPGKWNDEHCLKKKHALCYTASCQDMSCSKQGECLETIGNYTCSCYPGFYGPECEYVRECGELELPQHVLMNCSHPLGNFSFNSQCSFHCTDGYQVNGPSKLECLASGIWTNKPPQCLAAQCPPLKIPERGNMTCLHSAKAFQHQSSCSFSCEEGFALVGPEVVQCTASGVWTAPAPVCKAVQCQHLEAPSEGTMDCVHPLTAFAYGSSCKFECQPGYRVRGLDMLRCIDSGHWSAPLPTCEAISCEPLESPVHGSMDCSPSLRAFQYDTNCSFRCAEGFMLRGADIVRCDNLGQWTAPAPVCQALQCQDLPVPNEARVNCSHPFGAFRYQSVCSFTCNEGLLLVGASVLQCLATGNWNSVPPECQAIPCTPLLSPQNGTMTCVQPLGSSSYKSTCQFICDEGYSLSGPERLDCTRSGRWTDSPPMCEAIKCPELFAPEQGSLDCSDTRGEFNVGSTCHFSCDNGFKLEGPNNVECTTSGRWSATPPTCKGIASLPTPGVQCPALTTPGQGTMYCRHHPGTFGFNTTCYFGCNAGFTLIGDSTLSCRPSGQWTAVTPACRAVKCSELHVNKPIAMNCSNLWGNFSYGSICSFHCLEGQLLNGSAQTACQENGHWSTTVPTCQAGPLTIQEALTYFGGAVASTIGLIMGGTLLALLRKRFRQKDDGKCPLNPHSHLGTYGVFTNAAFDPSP

vein recanalization = conditions: primate models; cited from earlier work
[2] = tested on: platelet-monocyte aggregation; conditions: humans; cited from earlier work
thrombus = conditions: mice; cited from earlier work
vein wall injury = conditions: rats; cited from earlier work
[3] = molecular target: P-selectin on activated mouse platelets (mouse) (UniProt Q01102); assay: cell-based or functional assay
Chain of P-selectin on activated mouse platelets (mouse) (Q01102 42-768): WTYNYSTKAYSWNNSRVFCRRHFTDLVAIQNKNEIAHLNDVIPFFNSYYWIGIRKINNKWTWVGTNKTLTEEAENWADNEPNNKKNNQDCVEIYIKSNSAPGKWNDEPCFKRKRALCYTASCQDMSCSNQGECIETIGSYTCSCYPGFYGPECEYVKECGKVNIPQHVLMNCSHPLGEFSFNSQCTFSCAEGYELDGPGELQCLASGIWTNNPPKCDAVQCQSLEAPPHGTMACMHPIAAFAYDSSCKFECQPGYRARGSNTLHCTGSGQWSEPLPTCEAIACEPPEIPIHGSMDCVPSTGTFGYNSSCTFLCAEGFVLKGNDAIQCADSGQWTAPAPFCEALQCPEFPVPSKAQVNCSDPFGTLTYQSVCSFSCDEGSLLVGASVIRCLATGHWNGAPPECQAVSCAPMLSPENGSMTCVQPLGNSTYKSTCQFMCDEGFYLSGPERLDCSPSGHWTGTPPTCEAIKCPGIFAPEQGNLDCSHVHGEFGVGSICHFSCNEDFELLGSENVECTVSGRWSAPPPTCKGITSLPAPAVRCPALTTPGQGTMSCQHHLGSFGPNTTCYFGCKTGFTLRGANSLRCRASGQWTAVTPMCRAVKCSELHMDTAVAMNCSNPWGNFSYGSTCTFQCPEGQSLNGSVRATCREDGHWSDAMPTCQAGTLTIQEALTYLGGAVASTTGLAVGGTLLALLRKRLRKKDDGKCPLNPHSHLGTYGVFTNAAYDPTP

[4] = molecular target: P-selectin on activated human platelets (human) (UniProt P16109); assay: cell-based or functional assay
venous thrombus = assay: Murine model of non-occlusive venous thrombosis (electrolytic injury of inferior vena cava); assay type: in vivo, C57BL/6 mice
Procedure: Enoxaparin was administered subcutaneously (6 mg/kg) 4 hours prior and 24 hours after electrolytic injury as a clinically relevant control. […] Venous side branches were ligated or cauterized, while posterior branches were left patent. A 25-gauge stainless steel needle, attached to a silver-coated copper wire was inserted into the exposed caudal vena cava and positioned against the anterior wall (anode). A second wire was implanted subcutaneously to complete the circuit (cathode) and a 250 μAmps current applied for 15 min. Subsequently, the needle was removed and a cotton swab held in gentle contact with the puncture site to prevent bleeding. The vena cava and associated thrombus, immediately below the renal veins to just above the bifurcation, was excised 48 hours after injury for determination of wet thrombus weight and histological examination. Specimens were fixed overnight in 10% neutral buffered formalin, processed for paraffin embedding, and 5 μm sections stained with hematoxylin and eosin (H&E) or antibodies specific to neutrophils (Ly-6G, BD Biosciences) and monocytes (CD68, Abeam, Cambridge, MA). The circumference of the vein wall was imaged at 20× magnification and leukocyte infiltration was quantified in 3 representative animals/group, 5 to 10 sections/tissue sample.

hemostasis = assay: Tail vein transection bleeding time; assay type: in vivo, mouse; conditions: PG-6 8 μmol/kg or enoxaparin (LMWH) 6 mg/kg intravenous, 5 min prior to transection
Procedure: Hemostasis was assessed using a tail vein transection model to determine bleeding time.^63 Mice were anesthetized with ketamine and xylazine by intraperitoneal injection and placed on a warming mat at 37° C. Sterile saline, enoxaparin (6 mg/kg), or PG-6 in 125 μL of sterile saline was injected into the penile vein. Five minutes after administration of test compound, the lateral tail vein was transected with a number 11 scalpel blade at a tail width of 2.3 mm and immediately submerged in 37° C. phosphate buffered saline. The bleeding time was determined at that instant when bleeding had ceased for 30 seconds. Animals were excluded if arterial bleeding was present.

[5] = high affinity biologics; cited from earlier work
P-selectin [6] = molecular target: T1, P-selectin; conditions: cited from earlier work

Molecule: C[C@@H]1O[C@@H](O[C@@H]2[C@@H](NC(=O)c3cc(=O)[nH]c(=O)[nH]3)C[C@@H](C(=O)NCCNC(=O)COCCOCC(=O)Nc3cc(S(=O)(=O)O)cc4cc(S(=O)(=O)O)cc(S(=O)(=O)O)c34)C[C@H]2O[C@@H]2O[C@H](CO)[C@H](O)[C@H](O[C@@H](CC3CCCCC3)C(=O)O)[C@H]2OC(=O)c2ccccc2)[C@@H](O)[C@H](O)[C@@H]1O [GMI-1070]
IC50 (P-selectin [1]): 423 µM

Molecule: O=C(O)c1c(O)c(C2(c3ccc(Cl)cc3)CC2)nc2c(C(F)(F)F)cccc12 [PSI-421, 2-[1-(4-chlorophenyl)cyclopropyl]-3-hydroxy-8-(trifluoromethyl)quinoline-4-carboxylic acid]
vein recanalization (vein recanalization): enhanced

Molecule: O=C(O)c1c(O)c(Cc2ccc(Cl)cc2)nc2c3c(ccc12)CCCC3 [PSI-697]
inhibition of platelet-monocyte aggregation in a phase I trial [2]: failed to inhibit | vein recanalization (vein recanalization): enhanced | thrombus weight (thrombus): reduced | wall stiffness, neointima formation, extravasation of inflammatory cells (vein wall injury): decreased

murine platelet-monocyte aggregates (flow cytometry, whole blood, PG-6 120 uM) [3]: 45 % reduction | murine platelet-neutrophil aggregates (flow cytometry, whole blood, PG-6 120 uM) [3]: 38 % reduction | human platelet-monocyte aggregates (flow cytometry, whole blood, PG-6 120 uM) [4]: 29 % reduction | human platelet-neutrophil aggregates (flow cytometry, whole blood, PG-6 120 uM) [4]: 42 % reduction
Molecule: PEG40-GSnP-6 (PG-6) (peptide)

tail vein transection bleeding time (hemostasis): prolonged | tail vein transection bleeding time (hemostasis; listed as LMWH): significant increase
Molecule: enoxaparin
thrombus formation / thrombus weight vs saline vehicle (venous thrombus; 48 h after electrolytic injury, PG-6 8 μmol/kg IV, LMWH 6 mg/kg SC): significant reduction | infiltrating CD68+ macrophages in vein wall (venous thrombus; 48 h after thrombus induction): significant reduction | infiltrating Ly6G+ neutrophils in vein wall (venous thrombus; 48 h after thrombus induction): significant reduction

B1: crizanlizumab: the only approved P-selectin inhibitor, an antibody (antibody, chains of the INN, looked up, V domains shown)
VH: QVQLVQSGAEVKKPGASVKVSCKVSGYTFTSYDINWVRQAPGKGLEWMGWIYPGDGSIKYNEKFKGRVTMTVDKSTDTAYMELSSLRSEDTAVYYCARRGEYGNYEGAMDYWGQGTLVTVSS
VL: DIQMTQSPSSLSASVGDRVTITCKASQSVDYDGHSYMNWYQQKPGKAPKLLIYAASNLESGVPSRFSGSGSGTDFTLTISSLQPEDFATYYCQQSDENPLTFGGGTKVEIK
t1/2 [5]: 10.6 days | Kd for P-selectin (in words) (P-selectin [6]; approved antibody): low nanomolar range

B2: PSGL-1: P-selectin glycoprotein ligand-1, native cognate ligand of P-selectin (protein, UniProt Q14242 42-412, looked up)
P-selectin glycoprotein …: QATEYEYLDYDFLPETEPPEMLRNSTDTTPLTGPGTPESTTVEPAARRSTGLDAGGAVTELTTELANMGNLSTDSAAMEIQTTQPAATEAQTTQPVPTEAQTTPLAATEAQTTRLTATEAQTTPLAATEAQTTPPAATEAQTTQPTGLEAQTTAPAAMEAQTTAPAAMEAQTTPPAAMEAQTTQTTAMEAQTTAPEATEAQTTQPTATEAQTTPLAAMEALSTEPSATEALSMEPTTKRGLFIPFSVSSVTHKGIPMAASNLSVNYPVGAPDHISVKQCLLAILILALVATIFFVCTVVLAVRLSRKGHMYPVRNYSPTEMVCISSLLPDGGEGPSATANGGLSKAKSPGLTPEPREDREGDDLTLHSFLP
Kd (P-selectin [6]; reported values): 0.07 to 0.3 µM
